We go through 25 compounds from ChEMBL document CHEMBL4837226, “Discovery of pyrrole derivatives for the treatment of glioblastoma and chronic myeloid leukemia” (Eur J Med Chem, 2021).

Counter-ions that a name gives are not always drawn.

In test [1] the target is T1, Tubulin (Homo sapiens) (UniProt P68371+Q9H4B7+P0DPH7+P68366+Q13509+Q71U36+P04350+Q3ZCM7+P07437+P68363+Q9BQE3+Q6PEY2+Q13885+Q9BVA1+Q9BUF5). The test is described as follows: Inhibition of [3H]Colchicine binding to tubulin (unknown origin) at 5 uM measured after 10 mins by DEAE-Cellulose filter method relative to control. The format is protein-complex assay.
Test [2] addresses Tubulin. Nature of the test: Inhibition of tubulin polymerization (unknown origin) assessed as reduction in tubulin assembly preincubated for 15 mins followed by GTP addition by spectrophotometric method. The format is protein-complex assay, Homo sapiens.
Test [3] deals with MCF7. Nature of the test: Cytotoxicity against human MCF7 cells assessed as cell growth inhibition measured after 96 hrs. The format is functional, cell-based. As to conditions: MCF7, 96 h.
In test [4] the target is T1, Tubulin (Homo sapiens). The test is described as follows: Inhibition of [3H]Colchicine binding to tubulin (unknown origin) at 1 uM measured after 10 mins by DEAE-Cellulose filter method relative to control. The format is protein-complex assay.
Test [5] relates to SW480. Nature of the test: Cytotoxicity against human SW480 cells assessed as cell growth inhibition measured after 48 hrs by XTT dye based assay. The format is functional. As to conditions: SW480, 48 h. (In general: Tetrazolium dyes change colour on reduction, which living cells bring about.)
For test [6], the system named is U-87 MG. The test is described as follows: Cytotoxicity against human U-87MG cells assessed as cell growth inhibition measured after 48 hrs by MTS colorimetric assay. The format is functional, cell-based, U-87MG ATCC.
For test [7], the system named is KBM5. The test is described as follows: Cytotoxicity against imatinib mesylate resistant wild-type human KBM5 cells expressing T315I mutant assessed as cell growth inhibition measured after 48 hrs by MTT assay. The format is functional, cell-based. As to conditions: KBM5, 48 h.
Test [8] has as its system U-87 MG. The test is described as follows: Cytotoxicity against human U-87MG cells assessed as cell growth inhibition by measuring maximum efficacy measured after 48 hrs by MTS colorimetric assay relative to control. The format is functional, U-87MG ATCC.
A short description of test [9]: Cytotoxicity against human U-343MG cells assessed as cell growth inhibition measured after 72 hrs by MTS colorimetric assay. The format is functional, cell-based.
Test [10] is described as follows: Cytotoxicity against human U343MG cells assessed as cell growth inhibition by measuring maximum efficacy measured after 72 hrs by MTS colorimetric assay relative to control. The format is functional. The settings on record: U-343MG.
The test system of test [11] is KBM5. Nature of the test: Cytotoxicity against Imatinib mesylate sensitive wild-type human KBM5 cells assessed as cell growth inhibition measured after 48 hrs by MTT assay. The format is functional, cell-based. The settings on record: KBM5, 48 h.
Test [12] deals with KU812 cell line. The test is described as follows: Cytotoxicity against Bcr-Abl expressing human KU812 cells assessed as cell growth inhibition measured after 48 hrs by MTT assay. The format is functional, cell-based. As to conditions: KU812, 48 h.
The test system of test [13] is SW-620. Nature of the test: Cytotoxicity against human SW-620 cells assessed as cell growth inhibition measured after 48 hrs by XTT dye based assay. The format is functional. The settings on record: SW-620, 48 h.

Turning to `COc1cc(C(=O)c2cn(-c3ccc(F)cc3)cc2-c2nccs2)cc(OC)c1OC`, the inhibition – broadly, the change of the read-out against control, counted positive when it falls – in test [1] is 69%. Further, the values for the IC50 in [2] and in test [3] were 780 nM and 22 nM, respectively.

In test [1], `COc1cc(C(=O)c2cn(-c3cccc(C)c3)cc2-c2nccs2)cc(OC)c1OC` displayed an inhibition of 83%. The IC50 (in general, the concentration that gives 50% inhibition) worked out at 490 nM in [2] and 20 nM in test [3].

For `COc1cc(C(=O)c2cn(-c3cccc(C)c3)cc2-c2ncco2)cc(OC)c1OC`, in test [1], the inhibition came to 77%. Besides, the IC50 in [2] turned out to be 720 nM; in test [3], 75 nM.

With `COc1cc(C(=O)c2cn(-c3ccc(C)cc3)cc2-c2ccco2)cc(OC)c1OC`, the inhibition amounted to 92% in test [1] and 71% in test [4]. Moreover, the IC50 is 460 nM in test [2] and 22 nM in test [3].

As to `COc1cc(C(=O)c2cn(-c3ccc(C)cc3)cc2-c2cccnc2)cc(OC)c1OC`, the inhibition in test [1] was 92%; in test [4], 58%. The IC50 worked out at 640 nM in test [2] and 19 nM in test [3].

Regarding `COc1cc(C(=O)c2cn(-c3ccc(F)cc3)cc2-c2ccoc2)cc(OC)c1OC`, the inhibition was determined as 87% in [1] and 71% in test [4]. Further, the IC50 in [2] is 380 nM; in test [3] it was 15 nM.

Compound `COc1cc(C(=O)c2cn(-c3cccc(C)c3)cc2-c2cccnc2)cc(OC)c1OC` registered an inhibition in [1] of 78%. Besides, the IC50 in test [2] was 740 nM; in test [3], 52 nM.

Compound `COc1cc(C(=O)c2cn(-c3ccc(F)cc3)cc2-c2cccnc2)cc(OC)c1OC` returned an inhibition in test [1] of 80%. Further, the values for the half-maximal inhibitory concentration (IC50) in test [2] and in [3] were 560 nM and 39 nM, respectively.

With `COc1cc(C(=O)c2cn(-c3ccc(F)cc3)cc2-c2ccncc2)cc(OC)c1OC`, the IC50 in test [5] is 934 nM; in [2] it was 580 nM; in [3], 9 nM; in test [6], 39.1 nM; in test [7], 13.1 nM; in test [9] it was 432 nM. For the same compound, the IC50 in test [11] is 12.2 nM; in test [12] it was 12.4 nM; in test [13], 66.5 nM. In addition, the inhibition in test [1] amounted to 87%. In addition, the Emax in test [8] came to 56%; in test [10], 75.1%.

For the compound `COc1cc(C(=O)c2cn(-c3cccc(C)c3)cc2-c2ccoc2)cc(OC)c1OC`, the results for the inhibition in [1] and in test [4] were 87% and 64%, respectively. Further, the IC50 in test [2] was 420 nM; in test [3] it was 21 nM.

The compound `COc1cc(C(=O)c2cn(-c3ccc(C)cc3)cc2-c2ccccn2)cc(OC)c1OC` gave an inhibition in test [1] of 83%. Moreover, the IC50 in test [2] stood at 460 nM; in test [3] it was 36 nM.

The compound `COc1cc(C(=O)c2cn(-c3ccc(F)cc3)cc2-c2ccsc2)cc(OC)c1OC` displayed an inhibition in [1] of 76%. Further, the IC50 was determined as 550 nM in test [2] and 15 nM in [3].

On to `Cc1ccc(NC(=O)c2ccc(CN3CCN(C)CC3)cc2)cc1Nc1nccc(-c2cccnc2)n1` [IMATINIB MESYLATE], for which the IC50 came to 311 nM in test [7], 152 nM in test [11] and 311 nM in test [12].

Consider `COc1cc(C(=O)c2cn(-c3ccc(C)cc3)cc2-c2ccoc2)cc(OC)c1OC`, for which the inhibition turned out to be 95% in [1] and 71% in [4]. Besides, the 50% inhibitory concentration (IC50) worked out at 470 nM in test [2] and 18 nM in test [3].

As to `COc1cc(C(=O)c2cn(-c3ccc(C)cc3)cc2-c2nccs2)cc(OC)c1OC`, the inhibition was 91% in test [1] and 63% in test [4]. The IC50 in test [2] worked out at 560 nM; in test [3], 14 nM.

On to `COc1cc(C(=O)c2cn(-c3ccc(C)cc3)cc2-c2ncco2)cc(OC)c1OC`, for which the inhibition was 90% in test [1] and 45% in [4]. Moreover, the IC50 in [2] worked out at 720 nM; in [3], 42 nM.

In test [1], `COc1cc(C(=O)c2cn(-c3cccc(C)c3)cc2-c2ccco2)cc(OC)c1OC` came in with an inhibition of 80%. Moreover, the IC50 came out at 560 nM in test [2] and 23 nM in test [3].

With `COc1cc(C(=O)c2cn(-c3ccc(F)cc3)cc2-c2ncco2)cc(OC)c1OC`, the inhibition in test [1] was found to be 68%. In addition, the IC50 in test [2] came to 1400 nM; in [3], 93 nM.

In test [1], `COc1cc(C(=O)c2cn(-c3cccc(C)c3)cc2-c2ccccn2)cc(OC)c1OC` returned an inhibition of 66%. The IC50 in [2] is 780 nM; in test [3], 140 nM.

With `COc1cc(C(=O)c2cn(-c3cccc(C)c3)cc2-c2ccncc2)cc(OC)c1OC`, in [1], the inhibition was found to be 88%. Moreover, the IC50 in test [2] was 590 nM; in [3], 65 nM.

Turning to `Cc1ccc(C(=O)Nc2ccc(CN3CCN(C)CC3)c(C(F)(F)F)c2)cc1C#Cc1cnc2cccnn12` [PONATINIB], the IC50 worked out at 10.6 nM in [7], 10.2 nM in [11] and 8.5 nM in test [12].

`COc1cc(C(=O)c2cn(-c3ccc(F)cc3)cc2-c2ccco2)cc(OC)c1OC`: in test [1], the inhibition stood at 82%. Further, the IC50 came out at 470 nM in test [2] and 17 nM in test [3].

In [1], `COc1cc(C(=O)c2cn(-c3ccc(F)cc3)cc2-c2ccccn2)cc(OC)c1OC` showed an inhibition of 44%. Besides, the IC50 in test [2] turned out to be 820 nM; in [3] it was 73 nM.

Turning to `COc1cc(C(=O)c2cn(-c3ccc(C)cc3)cc2-c2ccncc2)cc(OC)c1OC`, the inhibition in [1] was found to be 94%; in [4], 70%. Besides, the half-inhibitory concentration (IC50) in [2] was found to be 440 nM; in [3] it was 9 nM.

On to `COc1cc(C(=O)c2cn(-c3cccc(C)c3)cc2-c2ccsc2)cc(OC)c1OC`, for which, in [1], the inhibition is 74%. The IC50 in test [2] was determined as 520 nM; in test [3], 65 nM.
